Laboratory results as given in ChEMBL document CHEMBL1151543, “Application of the trimethyl lock1 to Ganciclovir, a pro-prodrug with increased oral bioavailability” (Bioorg Med Chem Lett, 1996).

assay: Oral bioavailability in rat; format: ADME, organism-based; settings: in vivo

SMILES | bioavailability
Cc1cc(C)c(C(C)(C)CC(=O)OCC(CO)OCn2cnc3c(O)nc(N)nc32)c(OCc2ccccc2)c1 (stereo not drawn) | 0%
CC(=O)Oc1cc(C)cc(C)c1C(C)(C)CC(=O)OCC(CO)OCn1cnc2c(O)nc(N)nc21 (stereo not drawn) | 15.6%
Nc1nc(O)c2ncn(COC(CO)CO)c2n1 [GANCICLOVIR] | 3.6%
